2 molecules from publication PMC3141555, “Neuroprotective effect of a new DJ-1-binding compound against neurodegeneration in Parkinson's disease and stroke model rats” (2011) can be followed below.

In test [1] the target is T1, DJ-1 (Homo sapiens, UniProt Q99497).
T1 construct: gene PARK7; recombinant DJ-1
T1 sequence (Q99497 2-189): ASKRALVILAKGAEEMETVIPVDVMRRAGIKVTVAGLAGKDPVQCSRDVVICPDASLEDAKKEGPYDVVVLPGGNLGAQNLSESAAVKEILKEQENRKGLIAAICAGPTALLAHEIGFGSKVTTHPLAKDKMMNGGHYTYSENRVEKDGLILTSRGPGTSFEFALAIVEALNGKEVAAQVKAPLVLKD
The test can be described thus: quartz crystal microbalance (compound fixed on sensor chip, recombinant DJ-1 applied). Type of test: binding.

Test [2] concerns the target T2, DJ-1 (human (endogenous in SH-SY5Y)), Q99497.
T2 chain: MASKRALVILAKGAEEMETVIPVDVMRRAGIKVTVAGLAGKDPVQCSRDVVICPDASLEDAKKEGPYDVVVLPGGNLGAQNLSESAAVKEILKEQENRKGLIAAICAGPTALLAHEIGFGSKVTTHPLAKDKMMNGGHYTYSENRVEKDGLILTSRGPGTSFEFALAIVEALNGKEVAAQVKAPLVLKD
The test can be described thus: cross-linking; SH-SY5Y cells incubated with 1 uM compound-23 or compound-B for 20 hours, treated with various amounts of H2O2 for 3 hours, then 0.5 mM DSS (or DMSO) for 30 min; extracts analysed by Western blotting with an anti-DJ-1 antibody. The following applies: remark: other sources report otherwise. A general note: A western blot detects proteins with antibodies after separation by electrophoresis.

Usually Kd stands for the constant that tells how readily two partners part at equilibrium. Broadly, the stoichiometry N is a count of units in the complex or per binding partner.

As for `COc1cc(C(=O)Nc2ccc(-c3cn4cccc(C)c4n3)cc2)cc(OC)c1OC` [compound-23, N-[4-(8-methyl(4-hydroimidazo[1,2-a]pyridin-2-yl))phenyl](3,4,5-trimethoxyphenyl)carboxamide], in test [1], the Kd stood at 103 nM.

B1: DJ-1, Q99497 1-189 (natural protein)
chain: MASKRALVILAKGAEEMETVIPVDVMRRAGIKVTVAGLAGKDPVQCSRDVVICPDASLEDAKKEGPYDVVVLPGGNLGAQNLSESAAVKEILKEQENRKGLIAAICAGPTALLAHEIGFGSKVTTHPLAKDKMMNGGHYTYSENRVEKDGLILTSRGPGTSFEFALAIVEALNGKEVAAQVKAPLVLKD
For B1, the stoichiometry N in test [2] was determined as 2.
